Reference: patent US10907214B2, “Methods for predicting drug responsiveness in cancer patients” (Oncology Venture ApS, priority 2016, dated 2021)

Tested on: patients having breast cancer
Experiment: Clinical trial 2: retrospective analysis, breast cancer patients treated with cisplatin, stratified by biomarkers
Format: in vivo, human
Details: Trial 2, breast cancer, neoadj, N=24
Description: Table 5 below summarizes the results of these studies.

N.N.[Cl][Pt][Cl] [Cisplatin, cisplatin]
overall response rate (ORR) (patients predicted in bottom 10% of responsiveness): ORR 50% | overall response rate (ORR) (patients predicted in top 10% of responsiveness): ORR 100%
